Measurements published in patent publication US7531320B2, “Modulation of β-catenin/TCF-activated transcription” (priority 2003, dated 2009).

How the values were obtained:
cyclin D1 = test: Real Time RT-PCR in SW480 cells, cyclin D1; format: cell-based, human; details: 25 μM; for ΔCT cyclin D1: relative to β-actin
Protocol: The RNeasy Midi Kit (Qiagen) was used for RNA extraction and Real Time RT-PCR was performed according to the protocol provided with the SYBR Green PCR Master Mix Kit (Perkin Elmer Biosystems, Shelton, Conn.). The primers used for cyclin D1, axin2, hnkd, c-myc, c-jun, and fra-1 amplifications were: cyclin D1 forward primer:5′-[…]-CCTGCTG-3′ (SEQ ID NO: 32) reverse primer: 5′-[…]-3′ (SEQ ID NO: 33) leading to a product size of approximately 300 bp; axin2 forward primer: 5′-[…] GGAAA-CT-3′ (SEQ ID NO: 34) and reverse primer: 5′-[…]-GAGA-3′ (SEQ ID NO: 35); hnkd forward primer: 5′-[…] TTGCGT-3′ (SEQ ID NO: 36) and the reverse primer: 5′-[…] ACGT-3′ (SEQ ID NO: 37); c-myc forward primer: 5′-GAA-[…] CTGC-3′ (SEQ ID NO: 38) and reverse primer: 5′-[…]-G-3′ (SEQ ID NO: 39); c-jun forward primer: 5′-[…]-3′ (SEQ ID NO: 40) and reverse primer: 5′-[…]-3′ (SEQ ID NO: 41); fra-1 forward primer: 5′-ACC-[…]-[…]-3′ (SEQ ID NO: 42) and reverse primer: 5′-[…]-TT-3′ (SEQ ID NO: 43). β-actin was used for normalization. […]
1 μg of mRNA, for each time point, was subjected to Real Time RT-PCR. Expression level of endogenous cyclin D1, c-myc, fibronectin, hnkd, axin2, c-jun, and BMP-4 were measured relative to β-actin. Quantitation of The ΔCycle of Threshold (CT) values was determined by subtracting the average values of each set by the corresponding average values obtained for β-actin. […]
The cyclin D1 gene is inappropriately expressed in many different tumor types, and is known to be a direct target of the Wnt/β-catenin pathway (Shtutman et al., “The cyclin D1 gene is a target of the beta-catenin/LEF-1 pathway,” Proc. Natl. Acad. Sci. USA 96:5522-27 (1999); Tetsu et al., “Beta-catenin regulates expression of cyclin D1 in colon carcinoma cells,” Nature 398:422-26 (1999)). […] Expression level of endogenous cyclin D1, c-myc, fibronectin, hnkd, axin2, c-jun, and BMP-4 were measured relative to β-actin. Quantitation of The ΔCycle of Threshold (CT) values was determined by subtracting the average values of each set by the corresponding average values obtained for β-actin. […]

full-length mouse CBP = molecular target: T1, full-length mouse CBP (Mus musculus, UniProt P45481); test: 14C-labeled COMPOUND 1 incorporation into SW480 nuclear lysates transfected with CBP; format: binding; details: 100 μM and 200 μM cold COMPOUND 1, dose dependent
T1 construct: vectors expressing full-length Xenopus laevis β-catenin (2.2 μg) or full-length mouse CBP (1.1 μg); expressed in transfected cells; host or cells: SW480
T1 sequence (P45481 whole entry): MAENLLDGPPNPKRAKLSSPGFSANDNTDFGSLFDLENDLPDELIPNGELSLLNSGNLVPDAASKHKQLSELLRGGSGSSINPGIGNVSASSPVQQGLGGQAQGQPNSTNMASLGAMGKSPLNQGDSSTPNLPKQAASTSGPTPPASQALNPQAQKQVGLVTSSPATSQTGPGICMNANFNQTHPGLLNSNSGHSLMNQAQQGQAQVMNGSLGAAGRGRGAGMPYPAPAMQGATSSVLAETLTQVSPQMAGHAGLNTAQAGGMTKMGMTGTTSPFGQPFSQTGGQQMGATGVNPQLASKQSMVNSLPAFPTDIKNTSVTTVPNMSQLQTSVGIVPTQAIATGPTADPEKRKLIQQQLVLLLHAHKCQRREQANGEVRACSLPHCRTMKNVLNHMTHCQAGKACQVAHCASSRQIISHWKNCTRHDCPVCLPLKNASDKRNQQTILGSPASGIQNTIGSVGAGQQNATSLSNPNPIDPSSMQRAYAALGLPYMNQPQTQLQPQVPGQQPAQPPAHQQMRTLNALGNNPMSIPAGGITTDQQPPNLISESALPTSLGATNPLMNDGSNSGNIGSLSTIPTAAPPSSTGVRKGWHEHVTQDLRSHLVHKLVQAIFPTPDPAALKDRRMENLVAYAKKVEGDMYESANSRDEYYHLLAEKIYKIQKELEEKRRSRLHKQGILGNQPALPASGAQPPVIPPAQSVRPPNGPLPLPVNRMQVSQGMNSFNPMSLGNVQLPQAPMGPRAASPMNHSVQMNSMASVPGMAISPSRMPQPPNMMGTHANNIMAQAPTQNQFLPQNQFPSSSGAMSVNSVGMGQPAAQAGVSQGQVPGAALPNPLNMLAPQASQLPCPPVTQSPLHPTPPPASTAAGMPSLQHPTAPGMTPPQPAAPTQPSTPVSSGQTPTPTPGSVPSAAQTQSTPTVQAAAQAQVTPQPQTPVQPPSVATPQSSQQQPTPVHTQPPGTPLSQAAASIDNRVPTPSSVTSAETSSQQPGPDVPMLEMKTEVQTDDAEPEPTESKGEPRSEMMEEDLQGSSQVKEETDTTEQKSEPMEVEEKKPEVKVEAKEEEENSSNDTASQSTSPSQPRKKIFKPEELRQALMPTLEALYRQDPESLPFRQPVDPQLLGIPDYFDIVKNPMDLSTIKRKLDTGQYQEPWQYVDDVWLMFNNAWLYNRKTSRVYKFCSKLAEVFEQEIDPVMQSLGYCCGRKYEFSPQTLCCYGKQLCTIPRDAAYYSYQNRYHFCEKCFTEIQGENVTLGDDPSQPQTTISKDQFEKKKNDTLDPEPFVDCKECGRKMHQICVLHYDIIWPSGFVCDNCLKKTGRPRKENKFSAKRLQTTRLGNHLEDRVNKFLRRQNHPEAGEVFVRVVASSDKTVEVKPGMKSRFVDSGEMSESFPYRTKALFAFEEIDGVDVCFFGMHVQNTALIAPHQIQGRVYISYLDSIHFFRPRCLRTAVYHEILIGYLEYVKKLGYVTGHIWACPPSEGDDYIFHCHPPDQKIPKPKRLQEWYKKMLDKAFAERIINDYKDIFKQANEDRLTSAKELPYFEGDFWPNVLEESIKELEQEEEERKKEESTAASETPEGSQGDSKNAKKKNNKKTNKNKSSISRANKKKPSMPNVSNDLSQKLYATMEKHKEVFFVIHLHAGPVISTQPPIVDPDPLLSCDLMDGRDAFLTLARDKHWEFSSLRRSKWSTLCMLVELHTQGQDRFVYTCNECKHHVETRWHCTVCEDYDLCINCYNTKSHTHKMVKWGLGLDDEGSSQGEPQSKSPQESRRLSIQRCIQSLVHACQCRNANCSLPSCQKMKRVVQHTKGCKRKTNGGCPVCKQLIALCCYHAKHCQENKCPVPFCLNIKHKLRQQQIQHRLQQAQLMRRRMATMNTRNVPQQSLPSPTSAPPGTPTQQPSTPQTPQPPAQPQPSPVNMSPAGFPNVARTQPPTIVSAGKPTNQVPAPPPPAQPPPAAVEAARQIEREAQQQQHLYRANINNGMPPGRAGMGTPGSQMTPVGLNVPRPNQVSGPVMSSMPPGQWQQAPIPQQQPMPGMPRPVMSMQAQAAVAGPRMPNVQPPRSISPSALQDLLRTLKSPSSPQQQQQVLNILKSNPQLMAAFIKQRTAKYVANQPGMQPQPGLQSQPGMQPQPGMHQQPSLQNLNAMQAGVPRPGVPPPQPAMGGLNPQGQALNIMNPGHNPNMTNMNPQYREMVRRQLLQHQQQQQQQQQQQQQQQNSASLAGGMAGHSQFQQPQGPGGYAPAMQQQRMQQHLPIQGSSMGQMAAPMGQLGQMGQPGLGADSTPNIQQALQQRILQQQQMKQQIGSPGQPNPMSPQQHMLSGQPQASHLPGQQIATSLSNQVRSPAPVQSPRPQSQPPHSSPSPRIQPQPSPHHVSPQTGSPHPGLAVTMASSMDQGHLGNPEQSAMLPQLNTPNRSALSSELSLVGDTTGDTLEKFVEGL
Protocol: FIG. 1. COMPOUND 1 inhibits β-catenin/TCF transcription. • A(i) and A(ii). Structures of COMPOUND 1, COMPOUND 2, COMPOUND 3, COMPOUND 4, and COMPOUND 5. • B(i) and B(ii). […] SW480 cells (10^5), (FIG. 1B(i)), were transfected with β-catenin/TCF luciferase construct. Cells were treated with COMPOUND 1 (1-64 μM). 24 hours post treatment lysates were prepared and subjected to dual luciferase assay. The data is represented in different form in FIG. 1B(ii). • C. COMPOUND 1 has no effect on NFAT reporter construct. Stably transfected Jurkat cells, right panel, with an NFAT reporter construct, were stimulated with PMA (10 ng/ml)/lonomycin (1 μg/ml), and treated with COMPOUND 1 (0.781-50 μM). 24 hours post treatment lysates were prepared and subjected to dual luciferase assay. All experiments were performed in duplicate and the values plotted as means +/−standard deviation. • D. CBP is the molecular target of COMPOUND 1. […] The lysates were desalted using G-25 1 cc columns (Pharmacia) to remove the unbound ^14C-labeled-COMPOUND 1, and ^14C-labeled-COMPOUND 1 incorporation was measured.
A series of further investigations were performed to further validate that COMPOUND 1 binds CBP. […] Cell lysates were then desalted using G-25 columns to remove the unbound ^14C-labeled COMPOUND 1 and the incorporation of radioactivity was measured.

O=C1C(Cc2ccc(O)cc2)N2C(=O)CCN(C(=O)NCc3ccccc3)C2CN1Cc1cccc2ccccc12 (stereo not shown) [COMPOUND 1]
mRNA cyclin D1 (direction) (cyclin D1): ↓
ΔCT cyclin D1 (cyclin D1; 4 hours): 0.6
ΔCT cyclin D1 (cyclin D1; 24 hours): 3.1
Competition of 14C-labeled COMPOUND 1 incorporation by cold COMPOUND 1 (full-length mouse CBP): competed away
